Source: ChEMBL document CHEMBL5724709, “EUbOPEN Chemogenomics Library - IncuCyte” (2024)
Square brackets hold non-standard residues; d marks the D form. Peptide text beside a SMILES is read from it.

What was measured:
Format in all cases: toxicity, cell-based
Fibroblast = assay: Incucyte cell viability with human fibroblast; conditions: 24 h, 10 µM, compound concentration 10 uM
U2OS = assay: Incucyte cell viability with U2OS; conditions: human, 24 h, 10 µM, compound concentration 10 uM
HEK-293T = assay: Incucyte cell viability with HEK293T; conditions: human, 24 h, 10 µM, compound concentration 10 uM
Also: unitless GR value; below 1 slowed growth and below 0 cell loss.

O=C(NO)c1cnc(NC2(c3ccccc3)CC2)nc1
Growth Rate (Fibroblast; replicate number 1): -0.29
Growth Rate (Fibroblast; replicate number 2): 0.31
Growth Rate (U2OS; replicate number 1): -0.38
Growth Rate (U2OS; replicate number 2): -0.13
Growth Rate (HEK-293T; replicate number 1): 0.73
Growth Rate (HEK-293T; replicate number 2): 0.94

COc1cc2c(NC3CCN(C)CC3)cc(-c3ccc(C)o3)nc2cc1OCCCN1CCCC1
Growth Rate (Fibroblast; replicate number 1): 0.13
Growth Rate (Fibroblast; replicate number 2): -0.42
Growth Rate (U2OS; replicate number 1): -0.74
Growth Rate (U2OS; replicate number 2): -0.55
Growth Rate (HEK-293T; replicate number 1): -0.35
Growth Rate (HEK-293T; replicate number 2): -0.25

COc1cc2c(NC3CCN(C)CC3)nc(N3CCCN(C)CC3)nc2cc1OCCCN(C)C
Growth Rate (Fibroblast; replicate number 1): 1
Growth Rate (U2OS; replicate number 1): 0.63
Growth Rate (U2OS; replicate number 2): 1
Growth Rate (HEK-293T; replicate number 1): 0.78
Growth Rate (HEK-293T; replicate number 2): 1

Cc1ncsc1-c1ccc(CNC(=O)[C@@H]2C[C@@H](O)CN2C(=O)[C@@H](NC(=O)COCC(C)(COCCOCCOCCNC(=O)C[C@@H]2N=C(c3ccc(Cl)cc3)c3c(sc(C)c3C)-n3c(C)nnc32)COCCOCCOCCNC(=O)C[C@@H]2N=C(c3ccc(Cl)cc3)c3c(sc(C)c3C)-n3c(C)nnc32)C(C)(C)C)cc1
Growth Rate (Fibroblast; replicate number 1): 1
Growth Rate (U2OS; replicate number 1): 0.43
Growth Rate (U2OS; replicate number 2): 0.95
Growth Rate (HEK-293T; replicate number 1): 1

O=C(NO)c1ccc(CN2CCCc3cc(Cl)ccc32)cc1
Growth Rate (Fibroblast; replicate number 1): 0.78
Growth Rate (Fibroblast; replicate number 2): -0.22
Growth Rate (U2OS; replicate number 1): 0
Growth Rate (U2OS; replicate number 2): 0.79
Growth Rate (HEK-293T; replicate number 1): 0.69
Growth Rate (HEK-293T; replicate number 2): 0.85

C[C@H](NC(=O)[C@H](Cc1ccccc1)NC(=O)OCc1ccccc1)C(=O)CF
Growth Rate (Fibroblast; replicate number 1): 1
Growth Rate (U2OS; replicate number 1): 0.43
Growth Rate (U2OS; replicate number 2): 0.93
Growth Rate (HEK-293T; replicate number 1): 0.53
Growth Rate (HEK-293T; replicate number 2): 0.77

CCCOc1cc(OCCCCN(C)C)cc(Oc2cc3c(cc2NS(=O)(=O)c2ccc(OC)c(OC)c2)n(C)c(=O)n3C)c1.O=C(O)C(F)(F)F
Growth Rate (Fibroblast; replicate number 1): 1
Growth Rate (U2OS; replicate number 1): 0.87
Growth Rate (U2OS; replicate number 2): 1
Growth Rate (HEK-293T; replicate number 1): 0.59
Growth Rate (HEK-293T; replicate number 2): 0.72

FC(F)(F)Oc1ccc(Oc2ccnc(N3CCC(NC(=S)Nc4cccnc4)CC3)c2Cl)c(Cl)c1
Growth Rate (Fibroblast; replicate number 1): 0.38
Growth Rate (Fibroblast; replicate number 2): -0.07
Growth Rate (U2OS; replicate number 1): 0.35
Growth Rate (U2OS; replicate number 2): 0.56
Growth Rate (HEK-293T; replicate number 1): -0.1
Growth Rate (HEK-293T; replicate number 2): 0.12

N#C[C@@H]1CCCN1C(=O)[C@@H]1CCCN1C(=O)CCCc1ccccc1
Growth Rate (Fibroblast; replicate number 1): 1
Growth Rate (U2OS; replicate number 1): 1
Growth Rate (U2OS; replicate number 2): 0.94
Growth Rate (HEK-293T; replicate number 1): 0.6
Growth Rate (HEK-293T; replicate number 2): 0.93

COc1cccc(-c2nccc3c2CN(c2ccccc2)C3=O)c1
Growth Rate (Fibroblast; replicate number 1): 0.52
Growth Rate (Fibroblast; replicate number 2): 0.84
Growth Rate (U2OS; replicate number 1): 1
Growth Rate (U2OS; replicate number 2): 0.84
Growth Rate (HEK-293T; replicate number 1): 0.75
Growth Rate (HEK-293T; replicate number 2): 0.7

[2H]C([2H])([2H])C1(C([2H])([2H])[2H])Cn2nc(-c3ccc(F)cn3)c(-c3ccnc4[nH]ncc34)c2CO1
Growth Rate (Fibroblast; replicate number 1): 0.73
Growth Rate (Fibroblast; replicate number 2): 1
Growth Rate (U2OS; replicate number 1): 0.32
Growth Rate (U2OS; replicate number 2): 0.8
Growth Rate (HEK-293T; replicate number 1): 0.81
Growth Rate (HEK-293T; replicate number 2): 0.89

O=C(Nc1ccc2[nH]nc(-c3ccncc3)c2c1)[C@@H]1CCN(CC(=O)N2CCN(c3ccc(-c4ncccn4)cc3)CC2)C1
Growth Rate (Fibroblast; replicate number 1): 1
Growth Rate (U2OS; replicate number 1): 0.65
Growth Rate (U2OS; replicate number 2): 1
Growth Rate (HEK-293T; replicate number 1): -0.08
Growth Rate (HEK-293T; replicate number 2): -0.01

CC(=O)N[C@@H](C)C(=O)N[C@@H](CCC(=O)O)C(=O)N[C@H](C(=O)N[C@@H](C=O)CC(=O)O)C(C)C (Ac-AEV[dD]-aldehyde)
Growth Rate (Fibroblast; replicate number 1): 0.31
Growth Rate (Fibroblast; replicate number 2): 0.14
Growth Rate (U2OS; replicate number 1): 0.88
Growth Rate (U2OS; replicate number 2): 0.76
Growth Rate (HEK-293T; replicate number 1): 0.78
Growth Rate (HEK-293T; replicate number 2): 1

O=C(CCCCCCC(=O)Nc1ccc([C@H]2O[C@@H](CSc3nc(-c4ccccc4)c(-c4ccccc4)o3)C[C@@H](c3ccc(CO)cc3)O2)cc1)NO [TUBACIN]
Growth Rate (Fibroblast; replicate number 1): 1
Growth Rate (Fibroblast; replicate number 2): -0.34
Growth Rate (U2OS; replicate number 1): 1
Growth Rate (U2OS; replicate number 2): 0.73
Growth Rate (HEK-293T; replicate number 1): 0.85
Growth Rate (HEK-293T; replicate number 2): 1

CC/C(=C(/c1ccc(/C=C/C(=O)O)cc1)c1ccc2[nH]ncc2c1)c1ccc(F)cc1Cl [BRILANESTRANT]
Growth Rate (Fibroblast; replicate number 1): 1
Growth Rate (U2OS; replicate number 1): 1
Growth Rate (U2OS; replicate number 2): 0.77
Growth Rate (HEK-293T; replicate number 1): 0.82
Growth Rate (HEK-293T; replicate number 2): 0.87

CN(C)CCCN(CC[C@H](N)C(=O)O)C[C@H]1O[C@@H](n2cnc3c(N)ncnc32)[C@H](O)[C@@H]1O.O=C(O)C(F)(F)F
Growth Rate (Fibroblast; replicate number 1): 0.74
Growth Rate (Fibroblast; replicate number 2): 0.03
Growth Rate (U2OS; replicate number 1): 1
Growth Rate (HEK-293T; replicate number 1): 0.85
Growth Rate (HEK-293T; replicate number 2): 0.98

CCC[C@@H]1CNCc2c1[nH]c(=O)c(C#N)c2N1CCC2(CC1)CC2.Cl
Growth Rate (Fibroblast; replicate number 1): 0.62
Growth Rate (Fibroblast; replicate number 2): 0.92
Growth Rate (U2OS; replicate number 1): 0.72
Growth Rate (U2OS; replicate number 2): 0.8
Growth Rate (HEK-293T; replicate number 1): 0.66
Growth Rate (HEK-293T; replicate number 2): 0.97

Cc1ncc(Cl)cc1NCc1ccc(C(=O)N[C@@H](CC2CCCC2)C(=O)NC2CC2)s1
Growth Rate (Fibroblast; replicate number 1): 0.64
Growth Rate (Fibroblast; replicate number 2): 0.26
Growth Rate (U2OS; replicate number 1): 0.37
Growth Rate (U2OS; replicate number 2): 0.86
Growth Rate (HEK-293T; replicate number 1): 0.59
Growth Rate (HEK-293T; replicate number 2): 0.85

O=C(C=Cc1ccc(O)cc1)c1ccc(O)cc1O
Growth Rate (Fibroblast; replicate number 1): 0.64
Growth Rate (Fibroblast; replicate number 2): 1
Growth Rate (U2OS; replicate number 1): 0.9
Growth Rate (U2OS; replicate number 2): 0.75
Growth Rate (HEK-293T; replicate number 1): 0.72
Growth Rate (HEK-293T; replicate number 2): 0.82

Cc1ncsc1-c1ccc(CNC(=O)[C@@H]2C[C@@H](O)CN2C(=O)[C@@H](NC(=O)COCCOCCOc2ccc(-c3ccc4ncnc(Nc5ccc(OCc6cccc(F)c6)c(Cl)c5)c4c3)cc2)C(C)(C)C)cc1
Growth Rate (Fibroblast; replicate number 1): 1
Growth Rate (Fibroblast; replicate number 2): 0.62
Growth Rate (U2OS; replicate number 1): 1
Growth Rate (U2OS; replicate number 2): 0.6
Growth Rate (HEK-293T; replicate number 1): 1

CCOC(=O)NCCCC(=O)NCCc1ccccc1
Growth Rate (Fibroblast; replicate number 1): 1
Growth Rate (U2OS; replicate number 1): 0.48
Growth Rate (U2OS; replicate number 2): 0.84
Growth Rate (HEK-293T; replicate number 1): 0.61
Growth Rate (HEK-293T; replicate number 2): 0.8

CCCCCCCCCCCCCCCCNNC(=O)c1cccs1
Growth Rate (Fibroblast; replicate number 1): 0.8
Growth Rate (Fibroblast; replicate number 2): 0.19
Growth Rate (U2OS; replicate number 1): 0.83
Growth Rate (U2OS; replicate number 2): 1
Growth Rate (HEK-293T; replicate number 1): 0.8
Growth Rate (HEK-293T; replicate number 2): 1

Cc1ncsc1-c1ccc([C@H](C)NC(=O)[C@@H]2C[C@@H](O)CN2C(=O)[C@@H](NC(=O)COCCCOCCNC(=O)C[C@@H]2N=C(c3ccc(Cl)cc3)c3c(sc(C)c3C)-n3c(C)nnc32)C(C)(C)C)cc1
Growth Rate (Fibroblast; replicate number 1): -0.26
Growth Rate (Fibroblast; replicate number 2): -0.44
Growth Rate (U2OS; replicate number 1): -0.38
Growth Rate (U2OS; replicate number 2): 0.03
Growth Rate (HEK-293T; replicate number 1): 0.46
Growth Rate (HEK-293T; replicate number 2): 0.43

COc1ccc(N(C(=O)Oc2c(C)cccc2C)c2ccnc(Nc3ccc(N4CCN(C)CC4)cc3)n2)c(OC)c1
Growth Rate (Fibroblast; replicate number 1): 0.52
Growth Rate (Fibroblast; replicate number 2): 1
Growth Rate (U2OS; replicate number 1): 0.04
Growth Rate (U2OS; replicate number 2): 0.72
Growth Rate (HEK-293T; replicate number 1): 0.49
Growth Rate (HEK-293T; replicate number 2): 0.97

Cn1ncc2c(-c3c(-c4ccc(F)cn4)nn4c3COC(C)(C)C4)ccnc21
Growth Rate (Fibroblast; replicate number 1): 0.66
Growth Rate (Fibroblast; replicate number 2): 1
Growth Rate (U2OS; replicate number 1): 0.55
Growth Rate (U2OS; replicate number 2): 0.95
Growth Rate (HEK-293T; replicate number 1): 0.85
Growth Rate (HEK-293T; replicate number 2): 0.8

CC[C@H](C)[C@H](NC(=O)[C@H](CCC(=O)O)NC(=O)[C@@H](NC(C)=O)C(C)C)C(=O)N[C@H](C=O)CC(=O)O.O=C(O)C(F)(F)F (Ac-VEID-aldehyde)
Growth Rate (Fibroblast; replicate number 1): 1
Growth Rate (Fibroblast; replicate number 2): 0.22
Growth Rate (U2OS; replicate number 1): 1
Growth Rate (HEK-293T; replicate number 1): 0.64
Growth Rate (HEK-293T; replicate number 2): 0.97
